From US20250009689A1, “GASTRO-RETENTIVE ORAL DOSAGE UNIT CONTAINING A LOCAL ANAESTHETIC” (OREXA B.V., priority 2021, published 2025)
Marks after values point to notes of the source that are not given here.

Legend:
[1] = test system: fundus strips (stomach muscularis); experiment: Fundus strip length after acetylcholine-induced contraction; set-up: species or system domestic pigs; conditions: for Strip length (as percentage of baseline): 70 mg/L + acetylcholine 10^-4 M, 37° C.
Protocol: Within the gastro-intestinal tract, local circuits play a role in the regulation of food intake and transport. Mechanical extension of the stomach as a result of food intake activates stretch receptors (neurons) which in turn induces satiety signals. The pharmacology of stretch receptors can be analyzed in fundus strip preparations. Fresh stomach tissue (0-1 h after slaughter) was collected from routinely slaughtered domestic pigs. The fundus region of the stomach was removed and washed with cold saline (0.9% NaCl) solution. Tissue was submerged in clean cold saline and transported to the laboratory (transport time 30 min.). The mucosa and submucosa were removed from the muscularis (muscle layer). The muscularis was cut along the longitudinal muscle fibres in strips of approximately 1 by 5 cm. The strips were incubated for 15 min in a 37° C. saline solution. Thereafter, fundus strips were placed vertically in a transparent container, kept at 37° C. Stretching was ensured by a 5 g weight at the bottom of the strip. Test solutions were added into the container. Acetylcholine (10^−4M) exposure was used to induce a contraction of the fundus tissue. Pictures were taken at 0, 5, 10, 15, 30, 45 and 60 minutes after the start of the experiment with a digital camera. The length of the strips was measured by a blinded assessor (unknowing of the treatment) using Photoshop software (Adobe).

[2] = test system: fundus strips (stomach muscularis); experiment: Acid sensitivity of lidocaine: acetic acid pre-exposure, then fundus strip experiment; set-up: species or system domestic pigs
Protocol: Fresh stomach tissue (0-1 h after slaughter) was collected from routinely slaughtered domestic pigs. The fundus region of the stomach was removed and washed with cold saline (0.9% NaCl) solution. Tissue was submerged in clean cold saline and transported to the laboratory (transport time 30 min.).
The mucosa and submucosa were removed from the muscularis (muscle layer). The muscularis was cut along the longitudinal muscle fibres in strips of approximately 1 by 5 cm. The strips were incubated for 15 min in a 37° C. saline solution.
Thereafter, fundus strips were placed vertically in a transparent container, kept at 37° C. Stretching was ensured by a 5 g weight at the bottom of the strip. Test solutions were added into the container. Acetylcholine (10^−4M) exposure was used to induce a contraction of the fundus tissue. Pictures were taken at 0, 5, 10, 15, 30, 45 and 60 minutes after the start of the experiment with a digital camera. The length of the strips was measured by a blinded assessor (unknowing of the treatment) using Photoshop software (Adobe). Values were expressed as percentage of baseline (t=0 min).
The acid sensitivity of lidocaine was determined by exposing lidocaine to acetic acid (pH 2.5) for 1, 5 and 15 minutes before carrying out experiments on fundus strips, as in Example 5.

CCOC(=O)c1ccc(N)cc1 [Benzocaine, benzocaine]
Strip length (as percentage of baseline) ([1]; time 0 min (baseline)): 100 percentage of baseline | Strip length (as percentage of baseline) ([1]; time 5 min): 102.7* percentage of baseline | Strip length (as percentage of baseline) ([1]; time 10 min): 102.3* percentage of baseline | Strip length (as percentage of baseline) ([1]; time 15 min): 102.4** percentage of baseline | Strip length (as percentage of baseline) ([1]; time 30 min): 101.5* percentage of baseline | Strip length (as percentage of baseline) ([1]; time 45 min): 101.3** percentage of baseline | Strip length (as percentage of baseline) ([1]; time 60 min): 101.3** percentage of baseline

CCCCN1CCCCC1C(=O)Nc1c(C)cccc1C (centres unmarked) [Bupivacaine, bupivacaine]
Strip length (as percentage of baseline) ([1]; time 0 min (baseline)): 100 percentage of baseline | Strip length (as percentage of baseline) ([1]; time 5 min): 106.4*** percentage of baseline | Strip length (as percentage of baseline) ([1]; time 10 min): 107.1*** percentage of baseline | Strip length (as percentage of baseline) ([1]; time 15 min): 107.0*** percentage of baseline | Strip length (as percentage of baseline) ([1]; time 30 min): 106.8*** percentage of baseline | Strip length (as percentage of baseline) ([1]; time 45 min): 104.9*** percentage of baseline | Strip length (as percentage of baseline) ([1]; time 60 min): 101.9*** percentage of baseline

CCN(CC)CC(=O)Nc1c(C)cccc1C [Lidocaine, lidocaine]
Strip length (as percentage of baseline) ([1]; time 0 min (baseline)): 100 percentage of baseline | Strip length (as percentage of baseline) ([1]; time 5 min): 105.7** percentage of baseline | Strip length (as percentage of baseline) ([1]; time 10 min): 103.6* percentage of baseline | Strip length (as percentage of baseline) ([1]; time 15 min): 101.8* percentage of baseline | Strip length (as percentage of baseline) ([1]; time 30 min): 99.5 percentage of baseline | Strip length (as percentage of baseline) ([1]; time 45 min): 98.7 percentage of baseline | Strip length (as percentage of baseline) ([1]; time 60 min): 98.0* percentage of baseline | Effect on contraction induced by acetylcholine ([1]; lidocaine 70 mg/L, conclusion in words): reversed | Acid sensitivity (activity after exposure to low pH) ([2]; acetic acid pH 2.5, conclusion in words): inactivated at low pH | Activity on acetylcholine induced contraction after shortest acid exposure ([2]; acid exposure time 1 min, conclusion in words): remains active | Strip length (percentage of baseline) ([2]; lidocaine exposed 1 min. to acetic acid pH 2.5, time 0 min (baseline)): 100 percentage of baseline | Strip length (percentage of baseline) ([2]; lidocaine exposed 1 min. to acetic acid pH 2.5, time 5 min): 114.9 percentage of baseline | Strip length (percentage of baseline) ([2]; lidocaine exposed 1 min. to acetic acid pH 2.5, time 10 min): 115.8 percentage of baseline | Strip length (percentage of baseline) ([2]; lidocaine exposed 1 min. to acetic acid pH 2.5, time 15 min): 116.7 percentage of baseline | Strip length (percentage of baseline) ([2]; lidocaine exposed 1 min. to acetic acid pH 2.5, time 30 min): 116.2* percentage of baseline | Strip length (percentage of baseline) ([2]; lidocaine exposed 1 min. to acetic acid pH 2.5, time 45 min): 115.0* percentage of baseline | Strip length (percentage of baseline) ([2]; lidocaine exposed 1 min. to acetic acid pH 2.5, time 60 min): 113.6* percentage of baseline | Strip length (percentage of baseline) ([2]; lidocaine exposed 5 min. to acetic acid pH 2.5, time 0 min (baseline)): 100 percentage of baseline | Strip length (percentage of baseline) ([2]; lidocaine exposed 5 min. to acetic acid pH 2.5, time 5 min): 108.9 percentage of baseline | Strip length (percentage of baseline) ([2]; lidocaine exposed 5 min. to acetic acid pH 2.5, time 10 min): 108.3 percentage of baseline | Strip length (percentage of baseline) ([2]; lidocaine exposed 5 min. to acetic acid pH 2.5, time 15 min): 108.0 percentage of baseline | Strip length (percentage of baseline) ([2]; lidocaine exposed 5 min. to acetic acid pH 2.5, time 30 min): 108.0 percentage of baseline | Strip length (percentage of baseline) ([2]; lidocaine exposed 5 min. to acetic acid pH 2.5, time 45 min): 106.8 percentage of baseline | Strip length (percentage of baseline) ([2]; lidocaine exposed 5 min. to acetic acid pH 2.5, time 60 min): 104.9 percentage of baseline | Strip length (percentage of baseline) ([2]; lidocaine exposed 15 min. to acetic acid pH 2.5, time 0 min (baseline)): 100 percentage of baseline | Strip length (percentage of baseline) ([2]; lidocaine exposed 15 min. to acetic acid pH 2.5, time 5 min): 106.3 percentage of baseline | Strip length (percentage of baseline) ([2]; lidocaine exposed 15 min. to acetic acid pH 2.5, time 10 min): 105.9 percentage of baseline | Strip length (percentage of baseline) ([2]; lidocaine exposed 15 min. to acetic acid pH 2.5, time 15 min): 105.2 percentage of baseline | Strip length (percentage of baseline) ([2]; lidocaine exposed 15 min. to acetic acid pH 2.5, time 30 min): 102.4 percentage of baseline | Strip length (percentage of baseline) ([2]; lidocaine exposed 15 min. to acetic acid pH 2.5, time 45 min): 97.6 percentage of baseline | Strip length (percentage of baseline) ([2]; lidocaine exposed 15 min. to acetic acid pH 2.5, time 60 min): 93.8 percentage of baseline

CN(C(=O)CN(CCO)CC(=O)N(C)C(C)(C)Cc1ccccc1)C(C)(C)Cc1ccccc1 [Oxethazaine]
Strip length (as percentage of baseline) ([1]; time 0 min (baseline)): 100 percentage of baseline | Strip length (as percentage of baseline) ([1]; time 5 min): 104.5 percentage of baseline | Strip length (as percentage of baseline) ([1]; time 10 min): 104.8* percentage of baseline | Strip length (as percentage of baseline) ([1]; time 15 min): 104.3* percentage of baseline | Strip length (as percentage of baseline) ([1]; time 30 min): 101.3 percentage of baseline | Strip length (as percentage of baseline) ([1]; time 45 min): 98.2 percentage of baseline | Strip length (as percentage of baseline) ([1]; time 60 min): 94.6 percentage of baseline

CCCNC(C)C(=O)Nc1ccccc1C (centres unmarked) [Prilocaine, prilocaine]
Strip length (as percentage of baseline) ([1]; time 0 min (baseline)): 100 percentage of baseline | Strip length (as percentage of baseline) ([1]; time 5 min): 105.1* percentage of baseline | Strip length (as percentage of baseline) ([1]; time 10 min): 105.8** percentage of baseline | Strip length (as percentage of baseline) ([1]; time 15 min): 106.2** percentage of baseline | Strip length (as percentage of baseline) ([1]; time 30 min): 106.3** percentage of baseline | Strip length (as percentage of baseline) ([1]; time 45 min): 104.1* percentage of baseline | Strip length (as percentage of baseline) ([1]; time 60 min): 100.2* percentage of baseline
